Measurements from PubChem BioAssay AID1963860 (Molecular Pharmacology Branch, DTP, NCI, 2024).

Tested on: CN0375-F725-PDC KRAS spheroid viability
Assay: Anticancer human tumor CN0375-F725-PDC patient-derived colon carcinoma cell line growth inhibition [KRAS2]
Details: spheroids with HUVEC and MSC; for IC50: curve of first compound; for viability, T/C: stronger effect = lower value
Procedure, shortened: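 KRAS-mutant tumor cells were grown as spheroids with HUVEC endothelial cells and human MSCs as stroma. Targeted agents were tested alone and with KRAS pathway inhibitors. Doses started at or near clinical Cmax, or 10 microM, descending half-log.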

[1] = second compound 0.1 µM, first compound 0.0316 µM
[2] = second compound 0.316 µM, first compound 0.0316 µM
[3] = second compound 1 µM, first compound 0.0316 µM
[4] = second compound 3.16 µM, first compound 0.0316 µM
[5] = second compound 10 µM, first compound 0.0316 µM
[6] = second compound 0.1 µM, first compound 0.1 µM
[7] = second compound 0.1 µM, first compound 0.316 µM
[8] = second compound 0.1 µM, first compound 1 µM
[9] = second compound 0.1 µM, first compound 3.16 µM
[10] = second compound 0.1 µM, first compound 10 µM
[11] = second compound 0.316 µM, first compound 0.1 µM
[12] = second compound 0.316 µM, first compound 0.316 µM
[13] = second compound 0.316 µM, first compound 1 µM
[14] = second compound 0.316 µM, first compound 3.16 µM
[15] = second compound 0.316 µM, first compound 10 µM
[16] = second compound 1 µM, first compound 0.1 µM
[17] = second compound 1 µM, first compound 0.316 µM
[18] = second compound 1 µM, first compound 1 µM
[19] = second compound 1 µM, first compound 3.16 µM
[20] = second compound 1 µM, first compound 10 µM
[21] = second compound 3.16 µM, first compound 0.1 µM
[22] = second compound 3.16 µM, first compound 0.316 µM
[23] = second compound 3.16 µM, first compound 1 µM
[24] = second compound 3.16 µM, first compound 3.16 µM
[25] = second compound 3.16 µM, first compound 10 µM
[26] = second compound 10 µM, first compound 0.1 µM
[27] = second compound 10 µM, first compound 0.316 µM
[28] = second compound 10 µM, first compound 1 µM
[29] = second compound 10 µM, first compound 3.16 µM
[30] = second compound 10 µM, first compound 10 µM
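Further: spheroids exposed to agents for 7 days.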

## CC(=O)Nc1cccc(-n2c(=O)n(C3CC3)c(=O)c3c(Nc4ccc(I)cc4F)n(C)c(=O)c(C)c32)c1 + CNCc1ccccc1-c1csc(C(C)Nc2nc(C)nc3cc(OC)c(OC)cc23)c1
Second compound 0.1 µM
  IC50: 3.38 nM
Second compound 0.316 µM
  IC50: 1.9 nM
Second compound 1 µM
  IC50: < 0.1 nM
Second compound 3.16 µM
  IC50: < 0.1 nM
Second compound 10 µM
  IC50: < 0.1 nM
Second compound 0.1 µM, first compound 0.0001 µM
  viability, T/C: 89.5%
Second compound 0.1 µM, first compound 0.000316 µM
  viability, T/C: 78%
Second compound 0.1 µM, first compound 0.001 µM
  viability, T/C: 59.4%
Second compound 0.1 µM, first compound 0.00316 µM
  viability, T/C: 51%
Second compound 0.1 µM, first compound 0.01 µM
  viability, T/C: 42.3%
[1]
  viability, T/C: 30.2%
Second compound 0.316 µM, first compound 0.0001 µM
  viability, T/C: 83.9%
Second compound 0.316 µM, first compound 0.000316 µM
  viability, T/C: 70.9%
Second compound 0.316 µM, first compound 0.001 µM
  viability, T/C: 56.4%
Second compound 0.316 µM, first compound 0.00316 µM
  viability, T/C: 42.7%
Second compound 0.316 µM, first compound 0.01 µM
  viability, T/C: 37.9%
[2]
  viability, T/C: 26.6%
Second compound 1 µM, first compound 0.0001 µM
  viability, T/C: 45.4%
Second compound 1 µM, first compound 0.000316 µM
  viability, T/C: 36.8%
Second compound 1 µM, first compound 0.001 µM
  viability, T/C: 13.3%
Second compound 1 µM, first compound 0.00316 µM
  viability, T/C: 18.2%
Second compound 1 µM, first compound 0.01 µM
  viability, T/C: 11.4%
[3]
  viability, T/C: 3.9%
Second compound 3.16 µM, first compound 0.0001 µM
  viability, T/C: 1.63%
Second compound 3.16 µM, first compound 0.000316 µM
  viability, T/C: 0.39%
Second compound 3.16 µM, first compound 0.001 µM
  viability, T/C: 0.3%
Second compound 3.16 µM, first compound 0.00316 µM
  viability, T/C: 0.37%
Second compound 3.16 µM, first compound 0.01 µM
  viability, T/C: 0.23%
[4]
  viability, T/C: 0.73%
Second compound 10 µM, first compound 0.0001 µM
  viability, T/C: 0.67%
Second compound 10 µM, first compound 0.000316 µM
  viability, T/C: 0.27%
Second compound 10 µM, first compound 0.001 µM
  viability, T/C: 0.26%
Second compound 10 µM, first compound 0.00316 µM
  viability, T/C: 0.37%
Second compound 10 µM, first compound 0.01 µM
  viability, T/C: 0.36%
[5]
  viability, T/C: 0.25%

## COC(=O)c1ccc2c(C(=Nc3ccc(N(C)C(=O)CN4CCN(C)CC4)cc3)c3ccccc3)c(O)[nH]c2c1 + CNCc1ccccc1-c1csc(C(C)Nc2nc(C)nc3cc(OC)c(OC)cc23)c1
Second compound 0.1 µM
  IC50: 3220 nM
Second compound 0.316 µM
  IC50: 1570 nM
Second compound 1 µM
  IC50: 3840 nM
Second compound 3.16 µM
  IC50: < 31.6 nM
Second compound 10 µM
  IC50: < 31.6 nM
[1]
  viability, T/C: 95.2%
[6]
  viability, T/C: 95.4%
[7]
  viability, T/C: 86.6%
[8]
  viability, T/C: 83.5%
[9]
  viability, T/C: 50.3%
[10]
  viability, T/C: 0.35%
[2]
  viability, T/C: 94.7%
[11]
  viability, T/C: 88%
[12]
  viability, T/C: 84.3%
[13]
  viability, T/C: 73.1%
[14]
  viability, T/C: 14.9%
[15]
  viability, T/C: 0.2%
[3]
  viability, T/C: 84.7%
[16]
  viability, T/C: 87.9%
[17]
  viability, T/C: 77.3%
[18]
  viability, T/C: 68%
[19]
  viability, T/C: 65%
[20]
  viability, T/C: 0.24%
[4]
  viability, T/C: 1%
[21]
  viability, T/C: 0.73%
[22]
  viability, T/C: 0.68%
[23]
  viability, T/C: 1.02%
[24]
  viability, T/C: 0.63%
[25]
  viability, T/C: 0.32%
[5]
  viability, T/C: 0.63%
[26]
  viability, T/C: 0.51%
[27]
  viability, T/C: 0.5%
[28]
  viability, T/C: 0.37%
[29]
  viability, T/C: 0.61%
[30]
  viability, T/C: 0.3%

## COc1cc(Nc2ncc3c(n2)-c2ccc(Cl)cc2C(c2c(F)cccc2OC)=NC3)ccc1C(=O)O + CNCc1ccccc1-c1csc(C(C)Nc2nc(C)nc3cc(OC)c(OC)cc23)c1
Second compound 0.1 µM
  IC50: > 10000 nM
Second compound 0.316 µM
  IC50: > 10000 nM
Second compound 1 µM
  IC50: > 10000 nM
Second compound 3.16 µM
  IC50: < 31.6 nM
Second compound 10 µM
  IC50: < 31.6 nM
[1]
  viability, T/C: 101%
[6]
  viability, T/C: 95%
[7]
  viability, T/C: 93.5%
[8]
  viability, T/C: 90.8%
[9]
  viability, T/C: 89%
[10]
  viability, T/C: 75.9%
[2]
  viability, T/C: 96.8%
[11]
  viability, T/C: 93.1%
[12]
  viability, T/C: 88.4%
[13]
  viability, T/C: 83.8%
[14]
  viability, T/C: 87.3%
[15]
  viability, T/C: 75.7%
[3]
  viability, T/C: 58.2%
[16]
  viability, T/C: 54.7%
[17]
  viability, T/C: 57.5%
[18]
  viability, T/C: 61%
[19]
  viability, T/C: 61.7%
[20]
  viability, T/C: 48.4%
[4]
  viability, T/C: 0.72%
[21]
  viability, T/C: 0.93%
[22]
  viability, T/C: 0.51%
[23]
  viability, T/C: 0.58%
[24]
  viability, T/C: 1.16%
[25]
  viability, T/C: 0.38%
[5]
  viability, T/C: 0.31%
[26]
  viability, T/C: 0.48%
[27]
  viability, T/C: 0.55%
[28]
  viability, T/C: 0.16%
[29]
  viability, T/C: 0.24%
[30]
  viability, T/C: 0.19%

## COc1cc2nccc(Oc3ccc(NC(=O)C4(C(=O)Nc5ccc(F)cc5)CC4)cc3)c2cc1OC + CNCc1ccccc1-c1csc(C(C)Nc2nc(C)nc3cc(OC)c(OC)cc23)c1
Second compound 0.1 µM
  IC50: 3040 nM
Second compound 0.316 µM
  IC50: 1230 nM
Second compound 1 µM
  IC50: < 31.6 nM
Second compound 3.16 µM
  IC50: < 31.6 nM
Second compound 10 µM
  IC50: < 31.6 nM
[1]
  viability, T/C: 98.2%
[6]
  viability, T/C: 94.4%
[7]
  viability, T/C: 85.6%
[8]
  viability, T/C: 76.3%
[9]
  viability, T/C: 44.4%
[10]
  viability, T/C: 53.7%
[2]
  viability, T/C: 93%
[11]
  viability, T/C: 97.6%
[12]
  viability, T/C: 72.7%
[13]
  viability, T/C: 60.5%
[14]
  viability, T/C: 23%
[15]
  viability, T/C: 11.3%
[3]
  viability, T/C: 45.5%
[16]
  viability, T/C: 42.6%
[17]
  viability, T/C: 19.5%
[18]
  viability, T/C: 20.6%
[19]
  viability, T/C: 2.02%
[20]
  viability, T/C: 1.05%
[4]
  viability, T/C: 0.22%
[21]
  viability, T/C: 0.26%
[22]
  viability, T/C: 0.27%
[23]
  viability, T/C: 0.15%
[24]
  viability, T/C: 0.15%
[25]
  viability, T/C: 0.11%
[5]
  viability, T/C: 0.14%
[26]
  viability, T/C: 0.13%
[27]
  viability, T/C: 0.14%
[28]
  viability, T/C: 0.12%
[29]
  viability, T/C: 0.1%
[30]
  viability, T/C: 0.16%

## O=C(c1cc(Cc2n[nH]c(=O)c3ccccc23)ccc1F)N1CCN(C(=O)C2CC2)CC1 + CNCc1ccccc1-c1csc(C(C)Nc2nc(C)nc3cc(OC)c(OC)cc23)c1
Second compound 0.1 µM
  IC50: > 10000 nM
Second compound 0.316 µM
  IC50: > 10000 nM
Second compound 1 µM
  IC50: > 10000 nM
Second compound 3.16 µM
  IC50: < 31.6 nM
Second compound 10 µM
  IC50: < 31.6 nM
[1]
  viability, T/C: 112%
[6]
  viability, T/C: 109%
[7]
  viability, T/C: 100%
[8]
  viability, T/C: 107%
[9]
  viability, T/C: 104%
[10]
  viability, T/C: 95.5%
[2]
  viability, T/C: 108%
[11]
  viability, T/C: 105%
[12]
  viability, T/C: 96.8%
[13]
  viability, T/C: 92.3%
[14]
  viability, T/C: 96.9%
[15]
  viability, T/C: 87.7%
[3]
  viability, T/C: 96.9%
[16]
  viability, T/C: 94.8%
[17]
  viability, T/C: 89.7%
[18]
  viability, T/C: 81%
[19]
  viability, T/C: 87.8%
[20]
  viability, T/C: 79.6%
[4]
  viability, T/C: 0.68%
[21]
  viability, T/C: 0.36%
[22]
  viability, T/C: 0.74%
[23]
  viability, T/C: 0.33%
[24]
  viability, T/C: 0.37%
[25]
  viability, T/C: 0.55%
[5]
  viability, T/C: 0.64%
[26]
  viability, T/C: 0.22%
[27]
  viability, T/C: 0.57%
[28]
  viability, T/C: 0.37%
[29]
  viability, T/C: 0.19%
[30]
  viability, T/C: 0.33%
